{"source": "paper PMC3850062", "about": "(Virology, 2013)", "biological_target": "T1, gp16 (eGFP-gp16), phi29 DNA packaging motor ATPase (Bacillus phage phi29, UniProt P11014)", "T1 sequence (P11014 1-332)": "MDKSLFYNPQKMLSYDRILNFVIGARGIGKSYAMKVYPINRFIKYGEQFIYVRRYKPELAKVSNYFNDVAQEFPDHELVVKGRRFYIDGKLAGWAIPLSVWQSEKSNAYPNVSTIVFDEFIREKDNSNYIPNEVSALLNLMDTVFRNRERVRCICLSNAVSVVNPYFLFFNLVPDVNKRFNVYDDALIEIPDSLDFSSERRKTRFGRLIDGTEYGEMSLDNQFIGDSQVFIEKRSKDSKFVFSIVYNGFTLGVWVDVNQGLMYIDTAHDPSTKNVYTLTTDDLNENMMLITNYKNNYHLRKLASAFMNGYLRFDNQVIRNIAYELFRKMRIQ", "conditions": "without and with saturating dsDNA"}
{"smiles": "Nc1ncnc2c1ncn2[C@@H]1O[C@H](COP(=O)(O)OP(=O)(O)OP(=O)(O)O)[C@@H](O)[C@H]1O", "note": "[ATP]", "values": [{"measurement": "fluorescence ATPase assay", "result": "each subunit of gp16 is able to hydrolyze ATP independently"}]}
